Values of other authors as cited in patent publication US12404348B2, “Bifunctional chimeric molecules for labeling of kinases with target binding moieties and methods of use thereof” (The Brigham and Women's Hospital, Inc., priority 2021, dated 2025).

Legend:
NF-κB Pathway = details: U(37 cells)
Recombinant PKCζ = target: T1, Recombinant PKCζ (Homo sapiens, UniProt Q05513)
T1 sequence (Q05513 1-592): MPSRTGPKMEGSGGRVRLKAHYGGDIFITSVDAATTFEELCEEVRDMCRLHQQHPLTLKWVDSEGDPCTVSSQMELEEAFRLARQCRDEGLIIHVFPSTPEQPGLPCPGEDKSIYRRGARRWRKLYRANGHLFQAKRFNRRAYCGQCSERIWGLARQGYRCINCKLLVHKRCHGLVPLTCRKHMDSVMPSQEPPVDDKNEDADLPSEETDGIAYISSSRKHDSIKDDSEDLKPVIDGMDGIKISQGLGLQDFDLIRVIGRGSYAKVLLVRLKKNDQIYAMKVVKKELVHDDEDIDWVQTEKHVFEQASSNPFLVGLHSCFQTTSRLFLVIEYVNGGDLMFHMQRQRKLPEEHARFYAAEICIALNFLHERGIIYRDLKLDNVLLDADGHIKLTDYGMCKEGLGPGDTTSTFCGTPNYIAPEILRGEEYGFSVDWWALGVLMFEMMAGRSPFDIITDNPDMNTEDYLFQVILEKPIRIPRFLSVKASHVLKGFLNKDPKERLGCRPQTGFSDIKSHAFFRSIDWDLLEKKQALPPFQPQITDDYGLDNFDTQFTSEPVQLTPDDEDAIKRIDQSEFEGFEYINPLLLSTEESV

PKCl = target: T2, PKCl (Homo sapiens, UniProt P41743)
T2 sequence (P41743 1-596): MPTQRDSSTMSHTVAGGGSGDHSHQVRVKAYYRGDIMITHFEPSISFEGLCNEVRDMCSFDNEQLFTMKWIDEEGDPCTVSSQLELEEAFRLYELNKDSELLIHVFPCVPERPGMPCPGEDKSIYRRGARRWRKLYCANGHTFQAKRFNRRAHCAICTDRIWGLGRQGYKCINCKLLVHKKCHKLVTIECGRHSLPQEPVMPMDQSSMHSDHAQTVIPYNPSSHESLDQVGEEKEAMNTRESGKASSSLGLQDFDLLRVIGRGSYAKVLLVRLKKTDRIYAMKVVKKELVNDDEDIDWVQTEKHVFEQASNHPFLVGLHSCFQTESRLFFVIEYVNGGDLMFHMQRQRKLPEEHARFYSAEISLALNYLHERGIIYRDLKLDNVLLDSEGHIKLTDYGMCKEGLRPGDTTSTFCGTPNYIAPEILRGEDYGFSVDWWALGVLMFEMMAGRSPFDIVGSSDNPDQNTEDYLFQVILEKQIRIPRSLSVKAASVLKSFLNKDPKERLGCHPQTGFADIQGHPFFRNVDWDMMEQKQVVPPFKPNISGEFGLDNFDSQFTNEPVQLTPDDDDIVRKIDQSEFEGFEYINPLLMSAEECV

PDK1 = target: T3, PDK1 (Homo sapiens, UniProt O15530)
T3 sequence (O15530 1-556): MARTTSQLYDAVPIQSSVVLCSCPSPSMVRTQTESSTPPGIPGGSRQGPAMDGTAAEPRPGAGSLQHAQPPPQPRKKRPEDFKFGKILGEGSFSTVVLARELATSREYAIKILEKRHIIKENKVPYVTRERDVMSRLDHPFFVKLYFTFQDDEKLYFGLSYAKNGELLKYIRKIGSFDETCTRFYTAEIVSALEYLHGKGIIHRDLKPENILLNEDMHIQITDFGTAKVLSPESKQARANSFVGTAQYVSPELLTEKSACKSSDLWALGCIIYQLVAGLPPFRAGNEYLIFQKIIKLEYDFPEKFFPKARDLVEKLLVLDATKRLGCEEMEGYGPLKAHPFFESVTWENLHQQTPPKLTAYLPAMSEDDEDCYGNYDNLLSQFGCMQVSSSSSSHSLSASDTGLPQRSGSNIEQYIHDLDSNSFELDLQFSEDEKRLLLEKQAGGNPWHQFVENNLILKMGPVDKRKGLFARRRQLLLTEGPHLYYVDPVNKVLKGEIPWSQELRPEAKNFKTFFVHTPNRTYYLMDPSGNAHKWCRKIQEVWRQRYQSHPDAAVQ

AKT1 [1] = target: T4, AKT1 (Homo sapiens, UniProt P31749)
T4 sequence (P31749 whole entry): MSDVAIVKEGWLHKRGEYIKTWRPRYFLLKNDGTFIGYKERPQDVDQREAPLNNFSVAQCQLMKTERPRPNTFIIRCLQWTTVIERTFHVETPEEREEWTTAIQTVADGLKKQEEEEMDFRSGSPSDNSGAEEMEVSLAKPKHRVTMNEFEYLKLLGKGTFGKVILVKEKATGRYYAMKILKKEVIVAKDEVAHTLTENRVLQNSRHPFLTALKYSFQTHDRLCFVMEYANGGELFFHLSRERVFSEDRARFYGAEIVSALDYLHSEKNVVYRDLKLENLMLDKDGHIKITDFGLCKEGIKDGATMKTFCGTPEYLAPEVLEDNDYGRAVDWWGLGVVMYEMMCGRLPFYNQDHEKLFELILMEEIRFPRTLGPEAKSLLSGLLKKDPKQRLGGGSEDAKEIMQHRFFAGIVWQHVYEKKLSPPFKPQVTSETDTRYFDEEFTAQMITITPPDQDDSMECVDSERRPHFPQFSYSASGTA

AKT1 [2] = target: T4, AKT1; remark: listed apart in the source

cell-free assay % inhibin at 62.5 μM (Recombinant PKCζ) | Compound | NF-κB reporter gene assay % inhibin at 5 μM (NF-κB Pathway) | other results
 | CC(C)(C)C1=NN(c2ccc(F)cc2)C(c2ccc(O)cc2)C1 (centres unmarked) [1b] | 63.8% | 
 | CC(C)(C)C1=NN(c2ccc(Br)cc2)C(c2ccc(O)cc2)C1 (centres unmarked) [1c] | 58.4% | 
 | Cc1ccc(N2N=C(C(C)(C)C)CC2c2ccc(O)cc2)cc1 (centres unmarked) [1e] | 62.9% | 
54.9% | CC(C)c1ccc(N2N=C(C(C)(C)C)CC2c2ccc(O)cc2)cc1 (centres unmarked) [1f] |  | 
47.9% | CC(C)(C)C1=NN(c2ccc(C(=O)O)cc2)C(c2ccc(O)cc2)C1 (centres unmarked) [1g] | 40.7% | 
 | CC(C)(C)C1=NN(c2cccc(Cl)c2)C(c2ccc(O)cc2)C1 (centres unmarked) [1h] | 64.6% | PKCl % inhibn at 20 μM (PKCl): 43.5%
 | CC(C)(C)C1=NN(c2cccc(F)c2)C(c2ccc(O)cc2)C1 (centres unmarked) [1i] | 73.5% | PKCl % inhibn at 20 μM (PKCl): 19.3%
 | CC(C)(C)C1=NN(c2cccc(C(F)(F)F)c2)C(c2ccc(O)cc2)C1 (centres unmarked) [1j] | 89.7% | PKCl % inhibn at 20 μM (PKCl): 17.0%; IC50 (NF-κB Pathway; read-out: NF-κB reporter gene assay IC50 ± SD): 2.7 ± 0.32 µM
 | Cc1cccc(N2N=C(C(C)(C)C)CC2c2ccc(O)cc2)c1 (centres unmarked) [1k] | 73.7% | PKCl % inhibn at 20 μM (PKCl): 13.9%
57.1% | CC(C)(C)C1=NN(c2ccccc2Cl)C(c2ccc(O)cc2)C1 (centres unmarked) [1l] | 23.5% | 
57.6% | CC(C)(C)C1=NN(c2ccccc2F)C(c2ccc(O)cc2)C1 (centres unmarked) [1m] | 48.7% | 
71.0% | CC(C)(C)C1=NN(c2ccc(Cl)cc2Cl)C(c2ccc(O)cc2)C1 (centres unmarked) [1n] | 50.2% | 
68.0% | CC(C)(C)C1=NN(c2ccc(F)cc2F)C(c2ccc(O)cc2)C1 (centres unmarked) [1o] | 51.8% | 
59.9% | Cc1ccc(N2N=C(C(C)(C)C)CC2c2ccc(O)cc2)c(C)c1 (centres unmarked) [1p] | 41.5% | 
 | CC(C)(C)C1=NN(c2ccc(F)c(F)c2)C(c2ccc(O)cc2)C1 (centres unmarked) [1s] |  | PKCl % inhibn at 20 μM (PKCl): 23.7%
 | Oc1ccc(C2CC(c3ccccc3O)=NN2c2ccc(Cl)cc2)cc1O (centres unmarked) [4g] |  | PKCl % inhibn at 20 μM (PKCl): 44.1%
 | O=C(O)/C=C(/CCc1cccc(Cl)c1)c1ccccc1 [Compound 3Z] |  | Amax (PDK1): 2.2 fold
 | COc1ccccc1Cn1c(-c2cccnc2N)nc2cccnc21 [Compound 3c] |  | Akt1 ΔTm (AKT1 [1]): no shift
 | COc1ccccc1Cn1c(-c2cccnc2N)nc2cc(Br)cnc21 [Compound 3d] |  | IC50 (AKT1 [2]): > 300 µM; Akt1 ΔTm (AKT1 [1]): no shift
 | CC(C)(C)c1ccc(-n2c(-c3ccncc3)nc3cccnc32)cc1 [Compound 3f] |  | IC50 (AKT1 [2]): 185 µM; Akt1 ΔTm (AKT1 [1]): no shift
 | CC(C)(C)c1ccc(-n2c(-c3cccnc3N)nc3cc(Br)cnc32)cc1 [Compound 3g] |  | IC50 (AKT1 [2]): > 300 µM; Akt1 ΔTm (AKT1 [1]): 0.9 °C
